# Reference: patent US20220016197A1, “ZINGIBER ZERUMBET EXTRACT FOR COMBATING DANDRUFF” (PIERRE FABRE DERMO-COSMETIQUE, priority 2018, published 2022)
# System: Malassezia furfur CBS1878
# Assay: Anti Malassezia activity: enumeration of residual microorganisms after contact with test product
# Format: cell-based
# Settings: for Enumeration of residual microorganisms after contact: product in mixture A inoculated with 1% inoculum of M. furfur at 10^7 CFU/ml; for log reduction value: versus initial number of microorganisms
# Experimental: Indeed, M. furfur may proliferate anew if it is not completely or sufficiently removed. […] This component is generally measured by estimating the decay of microbial colonies over time.
# Five formulas are tested in this test: • A compound used as reference: zinc pyrithione at 1.0% w/w in a mixture A comprising: sodium laureth sulfate 14.3%, alkyl dimethyl betaine 10.0%, decyl glucoside 3.8%, sorbitan monolaurate 2.0%, citric acid monohydrate 10% solution, qs pH=5; water qs 100; • A Zingiber zerumbet rhizome extract obtained by heptanic extraction from the dry and ground rhizome, at 2.0% w/w in mixture A; • A Zingiber zerumbet rhizome extract obtained by ethanolic extraction, at 2.0% w/w in mixture A; • A Zingiber zerumbet rhizome extract obtained by supercritical CO2 in a water-soluble excipient (butylene glycol) at 3.0% w/w in mixture A. This is a commercial material called Legance®, sold by the firm Sederma. The INCI name of this material is: Butylene glycol-Zingiber Zerumbet Extract.
# An inoculation of 20 g of test product is carried out with 1% inoculum of Malassezia furfur titrating at 10^7 CFU/ml. After a determined contact time, 1 g of product is taken and a 1/10 dilution is carried out in the neutralizing diluent. Successive dilutions at 1/10 up to 1/1000 dilution are carried out in the diluent. 1 ml is filtered on a 0.45 μm membrane in ester and cellulose acetate in the presence of 50 ml of sterile demineralized water (SDW), then two rinses are carried out with 50 ml of SDW.
# The chosen contact times are 1 h, 2 h, 5 h and 8 hours. The neutralizing diluent is TSB+10% polysorbate 80, the diluent is tryptone-salt. The rinsing liquid is sterile demineralized water.
substance,measurement,setting,value
zinc pyrithione [Compound 1],activity on Malassezia furfur (in words),,shows activity on Malassezia furfur from 1 hour of contact
same,reduction in the number of microorganisms,8 hours of contact,exceeds 3 log
same,Enumeration of residual microorganisms after contact,contact time 1 hour,7.2 × 10^4 CFU/g
same,log reduction value,contact time 1 hour,0.23
same,Enumeration of residual microorganisms after contact,contact time 2 hours,4.8 × 10^4 CFU/g
same,log reduction value,contact time 2 hours,0.40
same,Enumeration of residual microorganisms after contact,contact time 5 hours,4.9 × 10^3 CFU/g
same,log reduction value,contact time 5 hours,1.39
same,Enumeration of residual microorganisms after contact,contact time 8 hours,<1.0 × 10^2 CFU/g
same,log reduction value,contact time 8 hours,>3.08
